Results as given in publication PMC3158675, “Effective inhibitors of the essential kinase PknB and their potential as anti-mycobacterial agents” (Tuberculosis (Edinburgh, Scotland), 2011).

Tests used:
Assay type in all cases: cell-based
M. smegmatis fbpA mutant = details: mutant compared with wild type
M. tuberculosis [1] = assay: Alamar blue MIC with efflux pump inhibitors reserpine and verapamil; details: reserpine or verapamil at 20 or 40 μg/ml
M. tuberculosis [2] = assay: Alamar blue MIC with cell wall weakening agent ethambutol at 0.5 MIC

CC[C@H]1OC(=O)[C@H](C)[C@@H](O[C@H]2C[C@@](C)(OC)[C@@H](O)[C@H](C)O2)[C@H](C)[C@@H](O[C@@H]2O[C@H](C)C[C@H](N(C)C)[C@H]2O)[C@](C)(O)C[C@@H](C)C(=O)[C@H](C)[C@@H](O)[C@]1(C)O [erythromycin]
Improvement of MIC in M. smegmatis fbpA mutant (M. smegmatis fbpA mutant): 8 fold

CC[C@@H](CO)NCCN[C@@H](CC)CO [ethambutol]
Improvement of MIC in M. smegmatis fbpA mutant (M. smegmatis fbpA mutant): not improved

CC[n+]1c(-c2ccccc2)c2cc(N)ccc2c2ccc(N)cc21 [ethidium bromide]
Decrease of MIC with efflux pump inhibitor (M. tuberculosis [1]): 4 fold

CO[C@H]1/C=C/O[C@@]2(C)Oc3c(C)c(O)c4c(O)c(c(/C=N/N5CCN(C)CC5)c(O)c4c3C2=O)NC(=O)/C(C)=C\C=C\[C@H](C)[C@H](O)[C@@H](C)[C@@H](O)[C@@H](C)[C@H](OC(C)=O)[C@@H]1C [rifampicin]
Reduction of MIC in the presence of sub-inhibitory ethambutol (M. tuberculosis [2]): 4 fold

[H]/N=C(/N)N[C@H]1[C@H](O)[C@@H](O)[C@H](O[C@@H]2O[C@@H](C)[C@](O)(C=O)[C@H]2O[C@@H]2O[C@@H](CO)[C@H](O)[C@@H](O)[C@@H]2NC)[C@@H](N/C(N)=N\[H])[C@@H]1O [streptomycin]
Improvement of MIC in M. smegmatis fbpA mutant (M. smegmatis fbpA mutant): not improved

CN[C@H](CC(C)C)C(=O)N[C@H]1C(=O)N[C@@H](CC(N)=O)C(=O)N[C@H]2C(=O)N[C@H]3C(=O)N[C@H](C(=O)N[C@H](C(=O)O)c4cc(O)cc(O)c4-c4cc3ccc4O)[C@H](O)c3ccc(c(Cl)c3)Oc3cc2cc(c3O[C@@H]2O[C@H](CO)[C@@H](O)[C@H](O)[C@H]2O[C@H]2C[C@](C)(N)[C@H](O)[C@H](C)O2)Oc2ccc(cc2Cl)[C@H]1O [vancomycin]
Improvement of MIC in M. smegmatis fbpA mutant (M. smegmatis fbpA mutant): 16 fold
